Tests used:
MERS = conditions: cited from earlier work
SARS-CoV-2 = conditions: in words; cited from earlier work
SARS-CoV-1 = conditions: cited from earlier work
[1] = tested on: SARS-CoV-2 Spike pseudotyped particle (PP); test: microbe, parasite or virus in culture; assay type: cell-based; conditions: Severe acute respiratory syndrome coronavirus 2, read-out: SARS-CoV-2 PP IC50

| SMILES | inhibitory activity against MERS in the PP entry assay (MERS) | inhibitory activity against SARS-CoV-2 in the PP entry assay (SARS-CoV-2) | inhibitory activity against SARS-CoV-1 in the PP entry assay (SARS-CoV-1) | IC50 [1] [µM] |
| --- | --- | --- | --- | --- |
| CN1CCN(C(c2ccccc2)c2ccc(Cl)cc2)CC1 (stereo not shown) [CCZ, chlorcyclizine] | inhibitory activities | inhibitory activities | inhibitory activities |  |
| CN1[C@@H]2CC[C@H]1C[C@@H](OC(c1ccccc1)c1ccc(Cl)cc1)C2 (stereo partly shown) [Clobenztropine] |  |  |  | 12.6 |

Reference: PMC8353886 (ACS Medicinal Chemistry Letters, 2021)
